# ChEMBL document CHEMBL3596188, “Synthesis and structure-activity relationship of aminoarylthiazole derivatives as correctors of the chloride transport defect in cystic fibrosis” (Eur J Med Chem, 2015)
# pEC50: −log10 of the molar value. The source made the active and inactive calls.
# Tested on: Cystic fibrosis transmembrane conductance regulator (Homo sapiens), P13569 [F508del]
# Test: Corrector activity at CFTR F508del mutant (unknown origin) expressed in human CFBE41o cells assessed as iodide influx at 10 uM after 24 hrs by HS-YFP assay
# Type: cell-based
# Conditions: not given
# Sequence of Cystic fibrosis transmembrane conductance regulator (Homo sapiens), P13569 [F508del] (P13569 as listed by the source): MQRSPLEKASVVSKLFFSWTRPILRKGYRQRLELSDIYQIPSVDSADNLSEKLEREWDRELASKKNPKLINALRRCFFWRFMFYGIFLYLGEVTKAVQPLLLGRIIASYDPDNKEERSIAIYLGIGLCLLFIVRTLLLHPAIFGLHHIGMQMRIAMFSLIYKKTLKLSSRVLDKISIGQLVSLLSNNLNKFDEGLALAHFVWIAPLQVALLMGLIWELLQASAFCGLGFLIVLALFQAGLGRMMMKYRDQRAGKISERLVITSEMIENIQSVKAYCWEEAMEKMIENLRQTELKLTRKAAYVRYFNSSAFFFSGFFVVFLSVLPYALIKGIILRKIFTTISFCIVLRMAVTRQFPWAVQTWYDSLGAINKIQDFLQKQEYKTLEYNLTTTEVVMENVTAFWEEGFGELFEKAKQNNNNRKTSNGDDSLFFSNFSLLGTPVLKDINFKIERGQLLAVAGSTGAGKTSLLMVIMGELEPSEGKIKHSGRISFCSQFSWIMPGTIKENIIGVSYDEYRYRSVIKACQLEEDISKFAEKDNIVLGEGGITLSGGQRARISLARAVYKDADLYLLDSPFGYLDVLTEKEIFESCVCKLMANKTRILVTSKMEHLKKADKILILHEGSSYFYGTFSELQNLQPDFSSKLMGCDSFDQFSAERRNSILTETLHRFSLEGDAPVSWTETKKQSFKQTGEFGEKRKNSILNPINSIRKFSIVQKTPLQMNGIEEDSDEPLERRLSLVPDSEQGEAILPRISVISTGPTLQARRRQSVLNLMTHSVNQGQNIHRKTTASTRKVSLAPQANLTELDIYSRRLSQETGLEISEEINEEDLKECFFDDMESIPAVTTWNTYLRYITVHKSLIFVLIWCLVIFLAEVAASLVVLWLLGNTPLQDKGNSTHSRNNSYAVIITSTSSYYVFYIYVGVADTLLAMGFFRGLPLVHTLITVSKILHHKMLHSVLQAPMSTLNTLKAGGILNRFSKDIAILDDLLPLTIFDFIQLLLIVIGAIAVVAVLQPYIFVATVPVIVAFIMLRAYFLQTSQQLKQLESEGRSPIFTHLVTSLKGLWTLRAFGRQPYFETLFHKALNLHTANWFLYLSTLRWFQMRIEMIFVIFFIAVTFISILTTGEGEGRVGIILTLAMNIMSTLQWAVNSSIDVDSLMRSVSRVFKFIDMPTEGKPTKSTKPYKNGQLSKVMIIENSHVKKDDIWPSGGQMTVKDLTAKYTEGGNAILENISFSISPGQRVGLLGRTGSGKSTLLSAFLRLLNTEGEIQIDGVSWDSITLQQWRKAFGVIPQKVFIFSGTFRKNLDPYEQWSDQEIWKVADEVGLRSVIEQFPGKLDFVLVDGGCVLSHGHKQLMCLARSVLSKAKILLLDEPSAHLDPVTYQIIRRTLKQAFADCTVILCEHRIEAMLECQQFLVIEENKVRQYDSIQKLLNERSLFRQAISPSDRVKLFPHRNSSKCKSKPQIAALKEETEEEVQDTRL
row,SMILES,Activity
1,CSc1cccc(Nc2nc(Cc3ccc(Br)cc3)cs2)c1,inactive
2,CSc1cccc(Nc2nc(-c3cccc(I)c3)cs2)c1,inactive
3,CSc1cccc(Nc2nc(-c3ccc(S(C)(=O)=O)cc3)cs2)c1,inactive
4,CSc1cccc(Nc2nc(-c3cc(Cl)cc(Cl)c3F)cs2)c1,inactive
5,CSc1cccc(Nc2nc(-c3cc4ccccc4oc3=O)cs2)c1,inactive
6,CSc1cccc(Nc2nc(-c3c(-c4ccccc4)noc3C)cs2)c1,inactive
7,CSc1cccc(Nc2nc(-c3ccccc3)c(C)s2)c1,inactive
8,CSc1cccc(Nc2nc(-c3ccc(CC(F)(F)F)cc3)cs2)c1,inactive
9,CSc1cccc(Nc2nc(-c3ccc4c(c3)ncn4C)cs2)c1,inactive
10,Brc1ccc(-c2csc(NC3CCCCC3)n2)cc1,inactive
11,CSc1cccc(Nc2nc(-c3ccc4c(c3)OCO4)cs2)c1,inactive
12,CSc1cccc(Nc2nc(-c3cc(Cl)cc(OC(F)(F)F)c3)cs2)c1,inactive
13,CSc1cccc(Nc2nc(-c3ccc(O)c(O)c3)cs2)c1,inactive
14,CSc1cccc(Nc2nc(-c3c(Cl)ccc(F)c3Cl)cs2)c1,inactive
15,CCCCCc1ccc(-c2csc(Nc3cccc(SC)c3)n2)cc1,inactive
16,CSc1cccc(Nc2nc(-c3cc4ccccc4o3)cs2)c1,inactive
17,Brc1ccc(-c2csc(N3CCCCC3)n2)cc1,inactive
18,CSc1cccc(Nc2nc(-c3cc(Cl)cs3)cs2)c1,inactive
19,CSc1cccc(Nc2nc(-c3nc4ccccc4s3)cs2)c1,inactive
20,CSc1cccc(Nc2nc(-c3cccc(OCC(=O)OC(C)(C)C)c3)cs2)c1,inactive
21,CSc1cccc(Nc2nc(-c3cccc(OCC(=O)O)c3)cs2)c1,inactive
22,CSc1cccc(Nc2nc(-c3cc(-c4ccc(Cl)cc4)no3)cs2)c1,inactive
23,CSc1cccc(Nc2nc(-c3ccco3)cs2)c1,inactive
24,CSc1cccc(Nc2nc(-c3ccc(F)c(Br)c3)cs2)c1,Active
25,COc1ccc(-c2csc(Nc3cccc(SC)c3)n2)cc1,inactive
26,CSc1cccc(Nc2nc(-c3ccc4c(c3)OCCO4)cs2)c1,inactive

row,SMILES,Activity
1,CSc1cccc(Nc2nc(-c3cccc(C(F)(F)F)c3)cs2)c1,inactive
2,CSc1cccc(Nc2nc(-c3cc(Cl)ccc3Cl)cs2)c1,inactive
3,O=C(Nc1nc(-c2ccc(Br)cc2)cs1)c1ccccc1,inactive
4,CSc1cccc(Nc2nc(-c3cc(Cl)cc(Cl)c3O)cs2)c1,inactive
5,CCc1ccc(Nc2nc(-c3cccc(Cl)c3)cs2)cc1SC,Active
6,CSc1cccc(Nc2nc(-c3ccc4c(c3)C(C)(C)CCC4(C)C)cs2)c1,inactive
7,CSc1cccc(Nc2nc(-c3cc(F)cc(Cl)c3)cs2)c1,inactive
8,CCCCCc1csc(-c2csc(Nc3cccc(SC)c3)n2)c1,inactive
9,COc1ccc(-c2csc(Nc3cccc(SC)c3)n2)cc1Cl,inactive
10,CSc1cccc(Nc2nc3ccc(Br)cc3s2)c1,inactive
11,CSc1cccc(Nc2nc(-c3nnn(-c4cc(Cl)cc(Cl)c4)c3C)cs2)c1,inactive
12,CSc1cccc(Nc2nc(-c3cc(Cl)ccc3O)cs2)c1,Active
13,CSc1cccc(Nc2nc(-c3ccc(C)cc3C)cs2)c1,inactive
14,CSc1cccc(Nc2nc(-c3cn(-c4ccccc4)c(C)n3)cs2)c1,inactive
15,CSc1cccc(N(C)c2nc(-c3cccc(Cl)c3)cs2)c1,inactive
16,Sc1cccc(Nc2nc(-c3cccc(Cl)c3)cs2)c1,inactive
17,CSc1cccc(Nc2nc(-c3cc(Br)ccc3O)cs2)c1,inactive
18,CSc1cccc(Nc2nc(C)cs2)c1,inactive
19,CSc1cccc(Nc2nc(-c3nccs3)cs2)c1,inactive
20,CSc1cccc(Nc2nc(-c3cnc4ccccc4c3)cs2)c1,inactive
21,CSc1cccc(Nc2nc(-c3ccc(Cl)c(C)c3)cs2)c1,inactive
22,CCCSc1cccc(Nc2nc(-c3cccc(Cl)c3)cs2)c1,inactive
23,CSc1cccc(Nc2nc(-c3ccc(Cl)cc3Cl)cs2)c1,inactive
24,CSc1cccc(Nc2nc(-c3ccc4c(c3)OCCCO4)cs2)c1,inactive
25,Brc1ccc(-c2csc(NCc3ccccc3)n2)cc1,inactive
26,CSc1cccc(Nc2nc(-c3ccc(Cl)cc3)c(-c3ccc(C)cc3)s2)c1,inactive

row,SMILES,Activity
1,Nc1nc(-c2ccc(Br)cc2)cs1,inactive
2,CSc1cccc(Nc2nc(-c3ccc4sccc4c3)cs2)c1,Active
3,CC(=O)Oc1ccccc1C(=O)Nc1nc(-c2ccc(Br)cc2)cs1,inactive
4,CSc1cccc(Nc2nc(-c3cccc([N+](=O)[O-])c3)cs2)c1,inactive
5,CSc1cccc(Nc2nc(-c3ccc(C(F)(F)F)cc3)cs2)c1,inactive
6,CSc1cccc(Nc2nc(-c3ccccc3Cl)cs2)c1,inactive
7,O=C(Nc1nc(-c2ccc(Br)cc2)cs1)c1ccccc1O,inactive
8,CSc1cccc(Nc2nc(-c3ccc(Br)c([N+](=O)[O-])c3)cs2)c1,inactive
9,CSc1cccc(Nc2nc(-c3cc(Cl)c(O)c(Cl)c3)cs2)c1,Active
10,CSc1cccc(Nc2nc(-c3cccnc3)cs2)c1,inactive
11,COc1cc2c(cc1OC)CN(c1csc(Nc3cccc(SC)c3)n1)CC2,inactive
12,CSc1cccc(Nc2nc(-c3cccc(Cl)c3)c(C)s2)c1,inactive
13,CSc1cccc(Nc2nc(-c3cc(OC(C)=O)c(OC(C)=O)c(OC(C)=O)c3)cs2)c1,inactive
14,CSc1cccc(Nc2nc(-c3nc4ccccc4n3C)cs2)c1,inactive
15,CSc1cccc(N(Cc2ccccc2)c2nc(-c3cccc(Cl)c3)cs2)c1,inactive
16,CSc1cccc(Nc2nc(-c3cc(C(C)(C)C)c(O)c(C(C)(C)C)c3)cs2)c1,inactive
17,COc1ccccc1-c1csc(Nc2cccc(SC)c2)n1,inactive
18,CSc1cccc(Nc2nc(-c3ccccc3C)cs2)c1,inactive
19,CCSc1cccc(Nc2nc(-c3cccc(Cl)c3)cs2)c1,inactive
20,CSc1cccc(Nc2nc(-c3ccc([N+](=O)[O-])cc3)cs2)c1,inactive
21,CSc1cccc(Nc2nc(-c3nc(C)cs3)cs2)c1,inactive
22,CSc1cccc(Nc2nc(-c3ccc(F)cc3)cs2)c1,inactive
23,COc1ccc(-c2csc(Nc3cccc(SC)c3)n2)c(OC)c1,inactive
24,CSc1cccc(Nc2nc(-c3ccccc3)c(C(=O)c3ccccc3)s2)c1,inactive
25,CSc1cccc(Nc2nc(-c3cc(Cl)cc(C(F)(F)F)c3)cs2)c1,Active
26,CSc1cccc(Nc2nc(-c3cc(C)n(-c4ccc(Cl)cc4)c3C)cs2)c1,inactive

row,SMILES,Activity
1,CSc1cccc(Nc2nc(-c3ccc(Br)cc3)c(C)s2)c1,inactive
2,CSc1cccc(Nc2nc(-c3cccc(C)c3)cs2)c1,inactive
3,Brc1ccc(-c2csc(N(Cc3ccccc3)Cc3ccccc3)n2)cc1,inactive
4,CSc1cccc(Nc2nc(-c3cnc(CS(=O)(=O)c4ccccn4)s3)cs2)c1,inactive
5,CSc1cccc(Nc2nc(-c3cccc(Cl)c3Cl)cs2)c1,inactive
6,CCN(CC)c1ccc(-c2csc(Nc3cccc(SC)c3)n2)cc1,inactive
7,CSc1cccc(Nc2nc(-c3ccc(C#N)cc3)cs2)c1,inactive
8,CSc1cccc(Nc2nc(-c3cc(C)cs3)cs2)c1,inactive
9,CSc1cccc(Nc2nc(-c3cccc(NC(C)=O)c3)cs2)c1,inactive
10,CSc1cccc(Nc2nc(-c3ccc4c(c3)NC(=O)CS4)cs2)c1,inactive
11,CSc1cccc(Nc2nc(-c3cc(OCC(=O)O)c(OCC(=O)O)c(OCC(=O)O)c3)cs2)c1,inactive
12,CSc1cccc(Nc2nc(-c3ccc(Cl)c([N+](=O)[O-])c3)cs2)c1,inactive
13,CSc1cccc(Nc2nc(CC(=O)Nc3ccccc3)cs2)c1,inactive
14,CSc1cccc(Nc2nc(-c3cccc(O)c3)cs2)c1,inactive
15,CSc1cccc(Nc2nc(-c3ccccn3)cs2)c1,inactive
16,CSc1cccc(Nc2nc(-c3ccsc3)cs2)c1,inactive
17,CSc1cccc(Nc2nc(-c3ccc(CCCl)cc3)cs2)c1,inactive
18,CSc1cccc(Nc2nc(-c3ccc(-c4ccccn4)s3)cs2)c1,inactive
19,CSc1cccc(Nc2nc(-c3ccc(F)c(Cl)c3)cs2)c1,Active
20,CSc1cccc(Nc2nc(-c3cccc(F)c3)cs2)c1,inactive
21,CSc1cccc(Nc2nc(-c3cccc(SC)c3)cs2)c1,inactive
22,CCCOc1ccc(-c2csc(Nc3cccc(SC)c3)n2)cc1,inactive
23,O=C(Nc1nc(-c2ccc(Br)cc2)cs1)c1ccncc1,inactive
24,CSc1cccc(Nc2nc(-c3cccc(Br)c3)cs2)c1,Active

# Biological target: Cystic fibrosis transmembrane conductance regulator (Homo sapiens, UniProt P13569, F508DEL)
# Sequence (P13569 as listed by the source): as above
# Test: (§1) Potentiator activity at CFTR F508del mutant (unknown origin) expressed in human CFBE41o cells assessed as increase in iodine influx measured after 30 mins incubation following rescue of F508del-CFTR by low temperature for 24 hrs by HS-YFP assay
# Type: cell-based
# Conditions: not given
row,SMILES,pEC50
1,CSc1cccc(Nc2nc(-c3ccc4c(c3)OCO4)cs2)c1,4.15
2,CSc1cccc(Nc2nc(-c3cc(Cl)cs3)cs2)c1,4.82
3,CSc1cccc(Nc2nc(-c3nccs3)cs2)c1,5.02
4,CSc1cccc(Nc2nc(-c3ccc(F)cc3)cs2)c1,4.57
5,CSc1cccc(Nc2nc(-c3ccc(C#N)cc3)cs2)c1,4.47

# Biological target: T1, Cystic fibrosis transmembrane conductance regulator (Homo sapiens, UniProt P13569)
# T1 sequence (P13569 as listed by the source): as above
# Test: as §1
# Type: cell-based
# Conditions: cfbe41o
row,SMILES,EC50
1,CSc1cccc(Nc2nc(-c3ccc(F)c(Br)c3)cs2)c1,Not Active
2,CSc1cccc(Nc2nc(-c3cc(Cl)cc(C(F)(F)F)c3)cs2)c1,Not Active

# Biological target: T1, Cystic fibrosis transmembrane conductance regulator
# Test: Corrector activity at CFTR F508del mutant (unknown origin) expressed in human CFBE41o cells assessed as iodide influx after 24 hrs by HS-YFP assay
# Type: cell-based
# Conditions: cfbe41o
row,SMILES,EC50
1,CSc1cccc(Nc2nc(-c3ccc4c(c3)OCO4)cs2)c1,Not Active
2,CSc1cccc(Nc2nc(-c3cc(Cl)cs3)cs2)c1,Not Active
3,CSc1cccc(Nc2nc(-c3nccs3)cs2)c1,Not Active
4,CSc1cccc(Nc2nc(-c3ccc(F)cc3)cs2)c1,Not Active
5,CSc1cccc(Nc2nc(-c3ccc(C#N)cc3)cs2)c1,Not Active
